Test results as given in ChEMBL document CHEMBL3994622, “Design and synthesis of new RAF kinase-inhibiting antiproliferative quinoline derivatives. Part 2: Diarylurea derivatives” (Eur J Med Chem, 2017).

Experiments:
[1] = test system: NCI/ADR-RES; assay: Growth inhibition of human NCI/ADR-RES cells assessed as cell growth at 5 uM incubated for 48 hrs by sulforhodamine B assay relative to control; format: functional; conditions: read-out: Activity
[2] = test system: UACC-62; assay: Growth inhibition of human UACC62 cells assessed as cell growth at 0.005 uM incubated for 48 hrs by sulforhodamine B assay relative to control; format: functional; conditions: UACC-62, 48 h, read-out: Activity
[3] = test system: Hs-578T; assay: Growth inhibition of human Hs 578T cells assessed as cell growth at 0.05 uM incubated for 48 hrs by sulforhodamine B assay relative to control; format: functional; conditions: read-out: Activity
[4] = test system: UACC-62; assay: Growth inhibition of human UACC62 cells assessed as cell growth at 0.05 uM incubated for 48 hrs by sulforhodamine B assay relative to control; format: functional; conditions: UACC-62, 48 h, read-out: Activity
[5] = test system: HCT-116; assay: Growth inhibition of human HCT116 cells assessed as cell growth at 0.005 uM incubated for 48 hrs by sulforhodamine B assay relative to control; format: functional; conditions: HCT-116, 48 h, read-out: Activity
[6] = test system: OVCAR-3; assay: Growth inhibition of human OVCAR3 cells assessed as cell growth at 50 uM incubated for 48 hrs by sulforhodamine B assay relative to control; format: functional; conditions: OVCAR-3, 48 h, read-out: Activity
[7] = test system: HOP-62; assay: Growth inhibition of human HOP62 cells assessed as cell growth at 0.005 uM incubated for 48 hrs by sulforhodamine B assay relative to control; format: functional; conditions: HOP-62, 48 h, read-out: Activity
[8] = test system: MDA-MB-231; assay: Growth inhibition of human MDA-MB-231 cells assessed as cell growth at 0.05 uM incubated for 48 hrs by sulforhodamine B assay relative to control; format: functional; conditions: MDA-MB-231, 48 h, read-out: Activity
[9] = test system: SF-539; assay: Growth inhibition of human SF539 cells assessed as cell growth at 0.005 uM incubated for 48 hrs by sulforhodamine B assay relative to control; format: functional; conditions: SF-539, 48 h, read-out: Activity
[10] = test system: A549; assay: Growth inhibition of human A549/ATCC cells assessed as cell growth at 0.05 uM incubated for 48 hrs by sulforhodamine B assay relative to control; format: functional; conditions: A549, 48 h, read-out: Activity
[11] = test system: A498; assay: Growth inhibition of human A498 cells assessed as cell growth at 0.005 uM incubated for 48 hrs by sulforhodamine B assay relative to control; format: functional; conditions: A498, 48 h, read-out: Activity
[12] = test system: A498; assay: Growth inhibition of human A498 cells assessed as cell growth at 50 uM incubated for 48 hrs by sulforhodamine B assay relative to control; format: functional; conditions: A498, 48 h, read-out: Activity
[13] = test system: SNB-75; assay: Growth inhibition of human SNB75 cells assessed as cell growth at 0.005 uM incubated for 48 hrs by sulforhodamine B assay relative to control; format: functional; conditions: SNB-75, 48 h, read-out: Activity
[14] = test system: MDA-MB-231; assay: Growth inhibition of human MDA-MB-231 cells assessed as cell growth at 50 uM incubated for 48 hrs by sulforhodamine B assay relative to control; format: functional; conditions: MDA-MB-231, 48 h, read-out: Activity
[15] = test system: SW-620; assay: Growth inhibition of human SW620 cells assessed as cell growth at 0.005 uM incubated for 48 hrs by sulforhodamine B assay relative to control; format: functional; conditions: SW-620, 48 h, read-out: Activity
[16] = test system: HL-60(TB); assay: Growth inhibition of human HL-60(TB) cells assessed as cell growth at 5 uM incubated for 48 hrs by sulforhodamine B assay relative to control; format: functional; conditions: HL-60, 48 h, read-out: Activity
[17] = test system: EKVX; assay: Growth inhibition of human EKVX cells assessed as cell growth at 0.5 uM incubated for 48 hrs by sulforhodamine B assay relative to control; format: functional; conditions: read-out: Activity
[18] = test system: KM12; assay: Growth inhibition of human KM12 cells assessed as cell growth at 0.5 uM incubated for 48 hrs by sulforhodamine B assay relative to control; format: functional; conditions: KM12, 48 h, read-out: Activity
[19] = test system: DU-145; assay: Growth inhibition of human DU145 cells assessed as cell growth at 50 uM incubated for 48 hrs by sulforhodamine B assay relative to control; format: functional; conditions: DU-145, 48 h, read-out: Activity
[20] = test system: BT-549; assay: Growth inhibition of human BT549 cells assessed as cell growth at 50 uM incubated for 48 hrs by sulforhodamine B assay relative to control; format: functional; conditions: BT-549, 48 h, read-out: Activity
[21] = test system: TK-10; assay: Growth inhibition of human TK10 cells assessed as cell growth at 5 uM incubated for 48 hrs by sulforhodamine B assay relative to control; format: functional; conditions: TK-10, 48 h, read-out: Activity
[22] = test system: HT-29; assay: Growth inhibition of human HT-29 cells assessed as cell growth at 50 uM incubated for 48 hrs by sulforhodamine B assay relative to control; format: functional; conditions: HT-29, 48 h, read-out: Activity
[23] = test system: ACHN; assay: Growth inhibition of human ACHN cells assessed as cell growth at 50 uM incubated for 48 hrs by sulforhodamine B assay relative to control; format: functional; conditions: read-out: Activity
[24] = test system: SK-MEL-5; assay: Growth inhibition of human SK-MEL-5 cells assessed as cell growth at 0.005 uM incubated for 48 hrs by sulforhodamine B assay relative to control; format: functional; conditions: SK-MEL-5, 48 h, read-out: Activity
[25] = test system: SNB-75; assay: Growth inhibition of human SNB75 cells assessed as cell growth at 0.05 uM incubated for 48 hrs by sulforhodamine B assay relative to control; format: functional; conditions: SNB-75, 48 h, read-out: Activity
[26] = test system: U-251; assay: Growth inhibition of human U251 cells assessed as cell growth at 0.5 uM incubated for 48 hrs by sulforhodamine B assay relative to control; format: functional; conditions: U-251, 48 h, read-out: Activity
[27] = test system: HT-29; assay: Growth inhibition of human HT-29 cells assessed as cell growth at 5 uM incubated for 48 hrs by sulforhodamine B assay relative to control; format: functional; conditions: HT-29, 48 h, read-out: Activity
[28] = test system: NCI-H522; assay: Growth inhibition of human NCI-H522 cells assessed as cell growth at 0.05 uM incubated for 48 hrs by sulforhodamine B assay relative to control; format: functional; conditions: NCI-H522, 48 h, read-out: Activity
[29] = test system: HCC 2998; assay: Growth inhibition of human HCC2998 cells assessed as cell growth at 0.005 uM incubated for 48 hrs by sulforhodamine B assay relative to control; format: functional; conditions: HCC 2998, 48 h, read-out: Activity
[30] = test system: IGROV-1; assay: Growth inhibition of human IGROV1 cells assessed as cell growth at 0.05 uM incubated for 48 hrs by sulforhodamine B assay relative to control; format: functional; conditions: IGROV-1, 48 h, read-out: Activity
[31] = test system: U-251; assay: Growth inhibition of human U251 cells assessed as cell growth at 0.005 uM incubated for 48 hrs by sulforhodamine B assay relative to control; format: functional; conditions: U-251, 48 h, read-out: Activity
[32] = test system: T47D; assay: Growth inhibition of human T47D cells assessed as cell growth at 10 uM incubated for 48 hrs by sulforhodamine B assay relative to control; format: functional; conditions: read-out: Activity
[33] = biological target: Platelet-derived growth factor receptor beta (Homo sapiens) (UniProt P09619); assay: Inhibition of human PDGFRbeta at 10 uM using poly[Glu:Tyr] (4:1) as substrate in presence of [33P]ATP by Hotspot assay relative to control
Sequence of Platelet-derived growth factor receptor beta (Homo sapiens) (P09619 whole entry): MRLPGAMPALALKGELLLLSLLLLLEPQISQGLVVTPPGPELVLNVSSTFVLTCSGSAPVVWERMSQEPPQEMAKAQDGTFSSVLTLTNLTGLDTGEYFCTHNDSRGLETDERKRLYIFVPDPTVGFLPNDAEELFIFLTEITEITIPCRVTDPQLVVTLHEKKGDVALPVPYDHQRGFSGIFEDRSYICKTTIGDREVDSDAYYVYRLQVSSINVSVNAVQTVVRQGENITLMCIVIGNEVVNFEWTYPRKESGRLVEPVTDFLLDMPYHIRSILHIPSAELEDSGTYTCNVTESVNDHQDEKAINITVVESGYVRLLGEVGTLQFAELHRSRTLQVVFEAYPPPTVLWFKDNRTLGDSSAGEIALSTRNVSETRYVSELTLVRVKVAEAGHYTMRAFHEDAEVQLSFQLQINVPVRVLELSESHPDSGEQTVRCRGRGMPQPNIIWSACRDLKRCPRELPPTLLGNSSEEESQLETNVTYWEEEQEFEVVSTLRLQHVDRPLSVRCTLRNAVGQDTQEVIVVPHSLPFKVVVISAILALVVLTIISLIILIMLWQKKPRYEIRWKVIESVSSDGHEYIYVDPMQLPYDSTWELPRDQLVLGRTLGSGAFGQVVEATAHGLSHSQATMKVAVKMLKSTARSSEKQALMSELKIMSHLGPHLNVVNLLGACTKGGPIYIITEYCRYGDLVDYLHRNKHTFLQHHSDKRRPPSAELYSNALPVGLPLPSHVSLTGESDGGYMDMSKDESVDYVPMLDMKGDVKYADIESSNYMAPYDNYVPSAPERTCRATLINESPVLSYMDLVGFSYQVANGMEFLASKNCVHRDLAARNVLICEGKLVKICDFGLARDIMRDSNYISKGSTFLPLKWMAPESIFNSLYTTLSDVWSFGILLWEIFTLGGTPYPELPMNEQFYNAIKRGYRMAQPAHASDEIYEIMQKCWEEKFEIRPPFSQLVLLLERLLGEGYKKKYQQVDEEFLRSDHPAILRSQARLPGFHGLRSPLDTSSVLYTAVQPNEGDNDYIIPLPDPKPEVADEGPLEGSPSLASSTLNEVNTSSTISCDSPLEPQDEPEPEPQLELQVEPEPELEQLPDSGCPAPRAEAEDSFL

[34] = biological target: Tyrosine-protein kinase ABL1 (Homo sapiens) (UniProt P00519); assay: Inhibition of human ABL1 at 10 uM using EAIYAAPFAKKK as substrate in presence of [33P]ATP by Hotspot assay relative to control
Sequence of Tyrosine-protein kinase ABL1 (Homo sapiens) (P00519 whole entry): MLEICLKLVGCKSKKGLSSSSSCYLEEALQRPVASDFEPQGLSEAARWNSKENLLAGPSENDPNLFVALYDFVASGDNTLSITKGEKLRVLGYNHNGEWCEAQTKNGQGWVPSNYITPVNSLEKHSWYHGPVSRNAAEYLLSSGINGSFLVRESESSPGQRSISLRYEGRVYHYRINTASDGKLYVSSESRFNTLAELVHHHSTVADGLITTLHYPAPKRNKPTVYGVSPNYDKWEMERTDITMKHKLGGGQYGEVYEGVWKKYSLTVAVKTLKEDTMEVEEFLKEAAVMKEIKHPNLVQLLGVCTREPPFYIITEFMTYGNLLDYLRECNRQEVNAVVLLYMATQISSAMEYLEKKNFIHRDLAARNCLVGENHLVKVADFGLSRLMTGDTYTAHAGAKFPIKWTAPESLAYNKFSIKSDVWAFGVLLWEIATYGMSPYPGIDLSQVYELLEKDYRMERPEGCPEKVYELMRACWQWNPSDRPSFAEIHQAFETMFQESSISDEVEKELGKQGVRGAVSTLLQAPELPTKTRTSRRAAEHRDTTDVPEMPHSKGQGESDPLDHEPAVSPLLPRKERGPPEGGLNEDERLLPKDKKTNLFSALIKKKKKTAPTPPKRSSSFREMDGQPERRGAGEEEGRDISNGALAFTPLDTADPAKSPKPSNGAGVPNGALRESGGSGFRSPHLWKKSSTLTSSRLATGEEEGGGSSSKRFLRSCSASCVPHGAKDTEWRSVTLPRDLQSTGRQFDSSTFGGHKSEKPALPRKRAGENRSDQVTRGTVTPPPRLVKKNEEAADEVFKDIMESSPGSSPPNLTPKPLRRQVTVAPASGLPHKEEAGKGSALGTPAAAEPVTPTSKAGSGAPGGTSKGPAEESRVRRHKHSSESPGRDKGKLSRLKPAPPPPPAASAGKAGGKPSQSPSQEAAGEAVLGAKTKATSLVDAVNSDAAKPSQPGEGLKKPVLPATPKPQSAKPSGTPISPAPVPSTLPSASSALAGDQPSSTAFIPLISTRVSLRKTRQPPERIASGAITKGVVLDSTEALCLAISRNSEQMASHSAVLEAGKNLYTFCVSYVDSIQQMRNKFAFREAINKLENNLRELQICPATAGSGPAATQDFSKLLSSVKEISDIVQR

SMILES: COc1cc2cc(Oc3ccc(NC(=O)Nc4cccc(C(F)(F)F)c4)cc3)c(C)nc2cc1OC
- growth at 5 µM [1]: 11%
- growth at 0.005 µM [2]: 93%
- growth at 0.05 µM [3]: 100%
- growth at 0.05 µM [4]: 94%
- growth at 0.005 µM [5]: 100%
- growth at 50 µM [6]: -57%
- growth at 0.005 µM [7]: 95%
- growth at 0.05 µM [8]: 95%
- growth at 0.005 µM [9]: 104%
- growth at 0.05 µM [10]: 96%
- growth at 0.005 µM [11]: 113%
- growth at 50 µM [12]: -65%
- growth at 0.005 µM [13]: 79%
- growth at 50 µM [14]: -82%
- growth at 0.005 µM [15]: 99%
- growth at 5 µM [16]: -13%
- growth at 0.5 µM [17]: 89%
- growth at 0.5 µM [18]: 88%
- growth at 50 µM [19]: -32%
- growth at 50 µM [20]: -69%
- growth at 5 µM [21]: 19%
- growth at 50 µM [22]: -99%
- growth at 50 µM [23]: -34%
- growth at 0.005 µM [24]: 96%
- growth at 0.05 µM [25]: 99%
- growth at 0.5 µM [26]: 94%
- growth at 5 µM [27]: 11%
- growth at 0.05 µM [28]: 92%
- growth at 0.005 µM [29]: 99%
- growth at 0.05 µM [30]: 108%
- growth at 0.005 µM [31]: 98%

SMILES: COc1cc2cc(Oc3ccc(NC(=O)Nc4cc(C(F)(F)F)cc(C(F)(F)F)c4)cc3)c(C)nc2cc1OC
- growth at 10 µM [32]: -21%

SMILES: COc1cc2cc(Oc3ccc(NC(=O)Nc4ccc(Cl)c(C(F)(F)F)c4)cc3)c(C)nc2cc1OC
- inhibition [33]: 29.5%
- inhibition [34]: -6.78%
